Test results from patent US11021598B2, “Resin molded product, laminate, and decorative sheet” (TOPPAN PRINTING CO., LTD., priority 2017, dated 2021).

What was measured:
[1] = pKa of photostabilizer (half neutralization potential titration); format: physicochemical; conditions: non-aqueous titration, HNP calibration curve
Protocol: (Method of Measuring pKa of Photostabilizer)
A solution of 0.1 N perchloric acid/dioxane and acetonitrile:chloroform=1:1 was added dropwise to an organic reference substance having known pKa value in an aqueous system to determine the half neutralization potential (HNP) by titration in a non-aqueous system. A plot of the HNP calibration curve for pKa was prepared. Then, titration was performed for the photostabilizer in the same manner to determine a corresponding pKa from the plot of calibration curve.

[2] = pKa of ultraviolet absorber upon light absorption; format: physicochemical; conditions: when irradiated with light, absorption spectrum; for pKa: acetonitrile solution titrated with 70% perchloric acid
Protocol: (Method of Measuring pKa of Ultraviolet Absorber Upon Light Absorption)
The ultraviolet absorber was dissolved in acetonitrile so that the absorbance at the maximum absorption wavelength became 1, and bubbling with nitrogen was performed for 15 minutes. Then, 70% perchloric acid was dropped into the solution to change the pH of the solution. At that time, the absorption spectrum of the solution was measured, and, from the absorbance at λmax, the ultraviolet absorber at each pH and the ultraviolet absorber in which hydrogen ion is added to the nitrogen of the benzotriazole skeleton or triazine skeleton of the ultraviolet absorber were obtained. From the point where these values become equal, pKa of the ultraviolet absorber upon light absorption was determined. Measurement of the absorption spectrum was performed by using a U-4000 spectrophotometer manufactured by Hitachi High-Technologies Corporation.

Row | Compound | Photostabilizer pKa [1] | other results
1 | Cc1cc(-n2nc3ccc(Cl)cc3n2)c(O)c(C(C)(C)C)c1 [Tinuvin 326, 2-(5-chloro-2-benzotriazolyl)-6-tert-butyl-p-cresol] | – | pKa [2]: -4.9
2 | CCCCN(c1nc(NCCO)nc(N(CCCC)C2CC(C)(C)N(OC3CCCCC3)C(C)(C)C2)n1)C1CC(C)(C)N(OC2CCCCC2)C(C)(C)C1 [Tinuvin 152] | 7.0 | –
3 | CCCCCCCCCCCCCCN1C(=O)NC2(CC(C)(C)N(C(C)=O)C(C)(C)C2)C1=O [8-acetyl-3-tetradecyl-7,7,9,9-tetramethyl-1,3,8-triazaspiro[4.5]decane-2,4-dione] | – | pKa [1]: 3.5
4 | CCCCCCCCOc1ccc(-c2nc(-c3ccc(C)cc3C)nc(-c3ccc(C)cc3C)n2)c(O)c1 [CYASORB UV-1164, 2,4-bis(2,4-dimethylphenyl)-6-(2-hydroxy-4-n-octyloxyphenyl)-1,3,5-triazine] | – | pKa [2]: -5
5 | CC(C)(C)CC(C)(C)c1ccc(O)c(-n2nc3ccccc3n2)c1 [Tinuvin 329] | – | Ultraviolet absorber pKa ([2]; acetonitrile, 70% perchloric acid): −4.9

Continued, in another order:

Row | Photostabilizer pKa [1] | Compound | other results
6 | 9.5 | CCCCC(Cc1cc(C(C)(C)C)c(O)c(C(C)(C)C)c1)(C(=O)OC1CC(C)(C)N(C)C(C)(C)C1)C(=O)OC1CC(C)(C)N(C)C(C)(C)C1 [Tinuvin PA144] | –
7 | 5.5 | CCCCCCCCCCCON1C(C)(C)CC(OC(=O)OC2CC(C)(C)N(OCCCCCCCCCCC)C(C)(C)C2)CC1(C)C [LA-81] | –
8 | 9.0 | CC1(C)CC(OC(=O)CCCCCCCCC(=O)OC2CC(C)(C)NC(C)(C)C2)CC(C)(C)N1 [Chimassorb 770] | –
9 | 4.7 | CCCCCCCCON1C(C)(C)CC(OC(=O)CCCCCCCCC(=O)OC2CC(C)(C)N(OCCCCCCCC)C(C)(C)C2)CC1(C)C [Tinuvin 123] | Photostabilizer pKa ([1]; listed as Tinuvin123): 4.5
